PubChem BioAssay (NCI)
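Test compounds were applied to cells in 96-well plates for 48 hours at 5 doses. TGI marks complete inhibition of growth.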 Where a SMILES comes first, the peptide text is derived from it. [ ]: non-standard residue; d: D form. The star is where a group is joined. ξ: configuration not given here. NMeF = CN[C@@H](Cc1ccccc1)C(=O)O; NMeV = CN[C@H](C(=O)O)C(C)C; ξNMeV = CNC(C(=O)O)C(C)C; Boc = CC(C)(C)OC(=O)*; OBn = c1ccc(CO*)cc1

How the values were obtained:
Assay in all cases: inhibition of tumour cell growth, NCI panel, 48 h
[1] = tested on: 786-0 renal
[2] = tested on: SR leukemia
[3] = tested on: SNB-78 CNS
[4] = tested on: MOLT-4 leukemia
[5] = tested on: UACC-257 melanoma
[6] = tested on: DMS 273 small cell lung
[7] = tested on: KM20L2 colon
[8] = tested on: SK-MEL-2 melanoma
[9] = tested on: M19-MEL melanoma
[10] = tested on: SN12C renal
[11] = tested on: ACHN renal
[12] = tested on: M14 melanoma

SMILES	TGI [1]	TGI [2]	TGI [3]	TGI [4]	TGI [5]	TGI [6]	TGI [7]	TGI [8]	TGI [9]	TGI [10]	TGI [11]	TGI [12]
CCCCCCCCCCCC[N+]12CC[N+](C)(CC1)CC2	26.8 µM	26.7 µM	76 µM	> 100 µM	> 100 µM	15.1 µM	85.9 µM	> 100 µM	70.9 µM	> 100 µM	> 100 µM	> 100 µM
NC(=O)/N=C/c1c(O)c2ccccc2oc1=O	–	–	> 100 µM	> 100 µM	> 100 µM	> 100 µM	> 100 µM	> 100 µM	–	> 100 µM	> 100 µM	> 100 µM
Cc1ccc(NC(=O)C2C3CCC(O3)C2C(=O)O)cc1 (stereo unspecified)	> 56.1 µM	43.6 µM	> 100 µM	> 100 µM	> 100 µM	> 100 µM	> 57.8 µM	> 100 µM	> 100 µM	> 81.4 µM	> 100 µM	> 76.4 µM
CC(=O)OCC1OC(N=[N+]=[N-])C(OC(C)=O)C(OC(C)=O)C1OC1OC(COC(C)=O)C(OC(C)=O)C(OC(C)=O)C1OC(C)=O (stereo unspecified)	> 100 µM	–	> 100 µM	> 100 µM	> 100 µM	> 100 µM	> 100 µM	> 100 µM	> 100 µM	> 100 µM	> 100 µM	> 100 µM
COc1ccc([C@H]2CC3C(=O)N(c4ccc(OC)cc4)C(=O)C3c3[nH]c4ccccc4c32)cc1 (stereo partly specified)	47.7 µM	–	> 100 µM	> 100 µM	> 100 µM	> 100 µM	> 100 µM	> 100 µM	> 100 µM	> 100 µM	> 100 µM	> 100 µM
CSC(C1c2ccccc2N(C)c2[nH]c(=O)n(C)c(=O)c21)S(=O)(=O)c1ccc(C)cc1 (stereo unspecified)	> 100 µM	–	> 100 µM	> 100 µM	> 100 µM	> 100 µM	–	> 100 µM	> 100 µM	> 100 µM	–	–
Brc1ccc(-c2cc3c(cc2C2SCCS2)OCO3)cc1	> 100 µM	86.9 µM	> 100 µM	> 100 µM	> 100 µM	> 100 µM	> 100 µM	> 100 µM	> 100 µM	> 100 µM	> 100 µM	> 100 µM
COc1ccc(C2=Nc3ccccc3N=C(SC)C2)cc1	> 100 µM	> 100 µM	> 100 µM	> 100 µM	65.7 µM	> 100 µM	> 100 µM	> 100 µM	> 100 µM	> 100 µM	> 100 µM	> 100 µM
COc1ccc(NC(=O)C(=O)Cc2ccc([N+](=O)[O-])c([N+](=O)[O-])c2CC(=O)C(=O)Nc2ccc(OC)cc2OC)c(OC)c1	> 100 µM	> 100 µM	> 100 µM	> 100 µM	> 100 µM	> 100 µM	> 100 µM	–	> 100 µM	> 100 µM	> 100 µM	> 100 µM
CN(C)CCC[N+]1=Nc2cccc3cccc(c23)N1	> 100 µM	35.5 µM	> 100 µM	62.4 µM	> 100 µM	59.5 µM	> 100 µM	> 100 µM	> 100 µM	> 100 µM	> 100 µM	39 µM
COC(=O)C(CCC1(C)OCCO1)=[N+]=[N-]	> 100 µM	> 100 µM	> 100 µM	> 100 µM	> 100 µM	> 100 µM	> 100 µM	> 100 µM	–	> 100 µM	> 100 µM	> 100 µM
CC(C)C(C(=O)N(C)[C@H](C(=O)N1CCC[C@H]1C(=O)N(C)[C@@H](Cc1ccccc1)C(=O)OCc1ccccc1)C(C)C)N(C)C(=O)[C@@H](NC(=O)OC(C)(C)C)C(C)C (stereo partly specified) (Boc-V[ξNMeV][NMeV]P[NMeF]-OBn)	> 71.3 µM	> 31.6 µM	> 31.6 µM	21.3 µM	> 31.6 µM	> 31.6 µM	> 31.6 µM	> 31.6 µM	> 31.6 µM	> 100 µM	> 100 µM	> 100 µM
COc1cc(O)c(Cc2ccccc2O)c(O)c1C(=O)CCc1ccccc1	–	–	31.4 µM	10.5 µM	16.1 µM	13.1 µM	24.6 µM	12.8 µM	20.5 µM	17 µM	–	–
